Experimental data as given in US7998989B2, “2-Imino-1,3-thiazoline-based compounds and T-type calcium channel inhibitors containing the same” (Korea Institute of Science and Technology, priority 2007, dated 2011).
Where two headings read alike, the source gives them in different places.

Columns and labels:
[1] = target: T1, α1G T-type calcium channel (Homo sapiens, UniProt O43497); experiment: Assay for % inhibiting activity against T-type calcium channel using FDSS6000 (fluo-3 calcium imaging, KCl activation); type: cell-based
T1 construct: host or cells: HEK293
Method: In the present invention, in order to examine an efficient inhibitor against the T-type calcium channel, a primary assay for T-type calcium channel inhibiting activity was conducted by a high-efficient assay using FDSS6000, wherein mammal HEK293 cell lines (originated from human kidney carcinoma cells) that specifically express α1G of the T-type calcium channel was used for primary assay. Through the primary assay, compounds that show meaningful inhibition effects were selected. The selected compounds were used in a second assay for T-type calcium channel inhibiting activity using an electrophysiological whole cell patch clamp method, wherein mammal HEK293 cell lines (originated from human kidney carcinoma cells) that specifically express α1G of the T-type calcium channel was used for the second assay. Mibefradil, which had been developed as a T-type calcium channel inhibitor, was used as a reference.
At 12-24 hours before being used for this assay, cells of HEK293 cell line (α1G cell line: KCTC 10519BP, Korean Collection for Type Cultures), which stably express α1G T-type calcium channel and Kir2.1, were sub-cultured in a poly-L-lysine treated 96-well plate with the density of 4×10^4 per well using a 96-well cell dispenser (Titertek). On the day of assay, the 96-well plate to which the cells were attached was washed three times with HEPES buffer solution (150 mM of NaCl, 5 mM of KCl, 1 mM of MgCl2, 2 mM of CaCl2, 10 mM of HEPES, 10 mM of glucose; pH 7.4) using a 96-well plate automatic washing device (Bio Tek), then reacted with HEPES buffer solution containing 5 μM fluo-3/AM and 0.001% Pluronic F-127 at room temperature for 1 hour, to label with fluorescent dye, and then further washed two times with HEPES buffer solution.
Thereafter, at 10 minutes before the measurement using device FDSS6000, washing with HEPES buffer solution containing 10 mM CaCl2 was conducted once more, and the final volume was adjusted to 81 μl. Besides the above 96-well plate containing the cells, two additional drug 96-well plates were provided, wherein the 96-well plates contained an inhibiting drug and KCl (final concentration: 75 mM) for activating the T-type calcium channel, respectively. Since most of cell-based HTS devices are equipped with a liquid application system for injection of drug, but have no liquid sucking system, the inhibiting drug to be tested and KCl were respectively provided at a five-times higher concentration in 10 mM CaCl2 HEPES buffer solution at the amount of 27 μl, diluted by five-times at the final cell plate volume of 135 μl, and then used in this test. The concrete method of measurement using FDSS6000 was as follows. After recording the reference value of 20 seconds, the change of intracellular Ca^2+ concentration that was induced by treatment of the inhibiting drug to be tested for 75 seconds followed by administration of KCl was measured, wherein the percentage (%) inhibition effect of the test drug, through estimating the area of ratio value of 340/380 in the control without treatment of the test drug, was 100%. As a reference drug, 10 μM mibefradil was used.
For accurate calcium imaging, the light source of 4 xenon lamps in FDSS6000 were radiated to selectively expose the cells to the excitation wavelength (340 nm and 380 nm) by a computer-controlled filter wheel. Data was obtained at intervals of 1.23 seconds. The emitter fluorescence light inflowed through a long-pass filter was obtained as an average 340/380 ratio value for each well in the 96-wells by using a CCD camera and a digital fluorescence analyzer in FDSS6000. All image data and analyses were obtained by using a FDSS6000-exclusive program from Hamamatsu Photonics.
The obtained results are shown in Table 2 (the results from the compounds according to the examples of the present invention) and Table 3 (the results from the compounds according to the comparative example where R6 is a phenyl group) [FDSS (% inhibition) 10 μM].

[2] = 10 μM, FDSS (% inhibition), comparative compounds where R6 is a phenyl group, read-out: FDSS
[3] = HEK293, 10 μM, HEK293 cells stably expressing α1G T-type calcium channel and Kir2.1, compounds of the examples, read-out: FDSS (% inhibition)/10uM

T1 sequence (O43497 whole entry): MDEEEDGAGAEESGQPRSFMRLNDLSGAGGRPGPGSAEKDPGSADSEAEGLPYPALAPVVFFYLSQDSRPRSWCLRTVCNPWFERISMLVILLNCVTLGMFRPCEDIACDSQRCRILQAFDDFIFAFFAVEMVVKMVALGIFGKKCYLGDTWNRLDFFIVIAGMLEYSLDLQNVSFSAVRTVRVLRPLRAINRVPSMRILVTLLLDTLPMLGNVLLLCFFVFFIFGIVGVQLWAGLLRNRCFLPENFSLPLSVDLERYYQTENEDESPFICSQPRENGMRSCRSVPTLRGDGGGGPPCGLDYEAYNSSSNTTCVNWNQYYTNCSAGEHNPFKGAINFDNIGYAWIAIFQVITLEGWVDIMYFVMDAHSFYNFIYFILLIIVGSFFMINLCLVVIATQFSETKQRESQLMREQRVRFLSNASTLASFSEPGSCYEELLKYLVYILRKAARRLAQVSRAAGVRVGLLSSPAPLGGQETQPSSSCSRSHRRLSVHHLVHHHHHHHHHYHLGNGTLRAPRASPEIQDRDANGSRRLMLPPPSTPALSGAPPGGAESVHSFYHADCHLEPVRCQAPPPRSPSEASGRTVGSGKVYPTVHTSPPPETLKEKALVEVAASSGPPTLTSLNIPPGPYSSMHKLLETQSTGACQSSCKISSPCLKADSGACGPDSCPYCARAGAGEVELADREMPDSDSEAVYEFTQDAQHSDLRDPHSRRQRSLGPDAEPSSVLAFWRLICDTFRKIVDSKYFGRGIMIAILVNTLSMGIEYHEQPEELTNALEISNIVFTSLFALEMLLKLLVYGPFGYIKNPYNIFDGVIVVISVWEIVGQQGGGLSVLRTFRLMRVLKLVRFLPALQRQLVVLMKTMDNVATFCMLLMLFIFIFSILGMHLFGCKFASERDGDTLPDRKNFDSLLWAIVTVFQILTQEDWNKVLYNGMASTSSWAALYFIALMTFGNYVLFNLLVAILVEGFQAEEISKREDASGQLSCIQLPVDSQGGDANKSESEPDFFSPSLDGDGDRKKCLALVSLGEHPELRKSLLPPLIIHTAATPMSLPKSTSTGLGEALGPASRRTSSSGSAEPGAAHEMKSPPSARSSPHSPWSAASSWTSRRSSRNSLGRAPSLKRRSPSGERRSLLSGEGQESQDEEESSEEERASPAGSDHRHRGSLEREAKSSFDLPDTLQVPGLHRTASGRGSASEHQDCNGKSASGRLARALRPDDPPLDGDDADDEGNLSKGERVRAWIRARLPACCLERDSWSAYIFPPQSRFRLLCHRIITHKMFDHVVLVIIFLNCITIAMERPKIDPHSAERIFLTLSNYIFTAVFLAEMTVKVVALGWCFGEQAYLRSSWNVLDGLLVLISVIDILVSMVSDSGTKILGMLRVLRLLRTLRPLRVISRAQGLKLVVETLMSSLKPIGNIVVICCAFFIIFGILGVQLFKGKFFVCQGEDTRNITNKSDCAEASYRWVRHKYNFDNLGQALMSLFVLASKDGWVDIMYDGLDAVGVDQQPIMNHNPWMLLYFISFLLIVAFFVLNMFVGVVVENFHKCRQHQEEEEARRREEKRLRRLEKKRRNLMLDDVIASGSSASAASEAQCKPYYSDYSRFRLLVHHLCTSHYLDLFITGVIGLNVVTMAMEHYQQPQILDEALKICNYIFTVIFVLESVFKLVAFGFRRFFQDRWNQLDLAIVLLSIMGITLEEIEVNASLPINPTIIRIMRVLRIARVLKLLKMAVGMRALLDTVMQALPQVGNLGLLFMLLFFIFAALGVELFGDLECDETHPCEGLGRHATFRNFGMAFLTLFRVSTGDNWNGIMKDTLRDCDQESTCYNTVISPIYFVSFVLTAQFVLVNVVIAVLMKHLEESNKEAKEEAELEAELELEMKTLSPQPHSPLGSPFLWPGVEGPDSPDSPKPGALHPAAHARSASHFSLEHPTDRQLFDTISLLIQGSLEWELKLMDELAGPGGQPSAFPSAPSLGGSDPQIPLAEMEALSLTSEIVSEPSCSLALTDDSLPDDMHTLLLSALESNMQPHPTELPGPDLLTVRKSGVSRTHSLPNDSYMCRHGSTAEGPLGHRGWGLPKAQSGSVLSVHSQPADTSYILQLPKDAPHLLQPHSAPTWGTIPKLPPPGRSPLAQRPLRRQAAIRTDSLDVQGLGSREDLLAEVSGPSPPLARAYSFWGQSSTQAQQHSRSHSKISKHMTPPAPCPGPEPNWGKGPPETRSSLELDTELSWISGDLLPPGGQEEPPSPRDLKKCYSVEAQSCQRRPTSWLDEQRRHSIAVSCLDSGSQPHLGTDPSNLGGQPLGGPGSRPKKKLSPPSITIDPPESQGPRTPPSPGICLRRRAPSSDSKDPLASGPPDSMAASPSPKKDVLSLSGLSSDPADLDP

| Structure (SMILES) | melting point [°C] | inhibition at 10 µM [1, 2] [%] | inhibition at 10 µM [1, 3] [%] |
| --- | --- | --- | --- |
| CN1C(=Nc2ccc(Oc3ccccc3)cc2)SCC1CC(=O)Nc1ccc(Cl)cc1.Cl (centres unmarked) [KHG21650, [2-(4-phenoxyphenylimino)-3-methyl-1,3-thiazolidine-4-yl]-N-(4-chlorophenyl)-acetamide hydrochloride] | 238 to 242 | 2.59 | – |
| CN1C(=Nc2ccc(Cl)cc2)SCC1CC(=O)Nc1ccc(Cl)cc1.Cl (centres unmarked) [KHG21652, [2-(4-chlorophenylimino)-3-methyl-1,3-thiazolidine-4-yl]-N-(4-chlorophenyl)-acetamide hydrochloride] | 239 to 242 | -7.7 | – |
| CC(C)Oc1cccc(N=C2SCC(CC(=O)Nc3ccc(Cl)cc3)N2C)c1.Cl (centres unmarked) [KHG21653, [2-(3-isopropoxyphenylimino)-3-methyl-1,3-thiazolidine-4-yl]-N-(4-chlorophenyl)-acetamide hydrochloride] | 201 to 203 | -2.17 | – |
| CCCCc1ccc(N=C2SCC(CC(=O)Nc3ccc(Cl)cc3)N2C)cc1.Cl (centres unmarked) [KHG21654, [2-(4-n-butylphenylimino)-3-methyl-1,3-thiazolidine-4-yl]-N-(4-chlorophenyl)-acetamide hydrochloride] | 239 to 241 | -1.13 | – |
| CN1C(=Nc2cccc([N+](=O)[O-])c2)SCC1CC(=O)Nc1ccc(Cl)cc1.Cl (centres unmarked) [KHG21655, [2-(3-nitrophenylimino)-3-methyl-1,3-thiazolidine-4-yl]-N-(4-chlorophenyl)-acetamide hydrochloride] | 228 | 4.68 | – |
| CC(C)c1ccc(NC(=O)CC2CSC(=Nc3ccc(C(F)(F)F)cc3)N2C)cc1.Cl (centres unmarked) [KHG21943, [2-(4-trifluoromethylphenylimino)-3-methyl-1,3-thiazolidine-4-yl]-N-(4-isopropylphenyl)-acetamide hydrochloride] | 238 to 242.8 | -2.56 | – |
| CC(C)Oc1cc(N=C2SCC(CC(=O)Nc3ccc(C(C)C)cc3)N2C)c(F)cc1Cl.Cl (centres unmarked) [KHG21944, [2-(4-chloro-5-isopropoxy-2-fluorophenylimino)-3-methyl-1,3-thiazolidine-4-yl]-N-(4-isopropylphenyl)-acetamide hydrochloride] | 190 to 194 | 5.89 | – |
| CC(C)c1ccc(NC(=O)CC2CSC(=Nc3ccc(C#N)cc3)N2C)cc1.Cl (centres unmarked) [KHG21945, [2-(4-cyanophenylimino)-3-methyl-1,3-thiazolidine-4-yl]-N-(4-isopropylphenyl)-acetamide hydrochloride] | 234 to 235 | 7.71 | – |
| CC(C)c1ccc(NC(=O)CC2CSC(=Nc3ccc(F)c(Cl)c3)N2C)cc1.Cl (centres unmarked) [KHG21947, [2-(3-chloro-4-fluorophenylimino)-3-methyl-1,3-thiazolidine-4-yl]-N-(4-isopropylphenyl)-acetamide hydrochloride] | 239 to 241 | 23.9 | – |
| CC(C)c1ccc(NC(=O)CC2CSC(=Nc3cccc(Br)c3)N2C)cc1.Cl (centres unmarked) [KHG21949, [2-(3-bromophenylimino)-3-methyl-1,3-thiazolidine-4-yl]-N-(4-isopropylphenyl)-acetamide hydrochloride] | 198 to 201 | 5.41 | – |
| CN1C(=Nc2ccc(Cl)cc2)SCC1CC(=O)Nc1ccc(Cl)cc1F.Cl (centres unmarked) [KHG23064, [2-(4-chlorophenylimino)-3-methyl-1,3-thiazolidine-4-yl]-N-(4-chloro-2-fluorophenyl)-acetamide hydrochloride] | 239 to 240 | 7.37 | – |
| CN1C(=Nc2ccc(Br)cc2)SCC1CC(=O)Nc1ccc(Cl)cc1F.Cl (centres unmarked) [KHG23065, [2-(4-bromophenylimino)-3-methyl-1,3-thiazolidine-4-yl]-N-(4-chloro-2-fluorophenyl)-acetamide hydrochloride] | 239 to 240 | 3.57 | – |
| CCCCc1ccc(N=C2SCC(CC(=O)Nc3ccc(Cl)cc3F)N2C)cc1.Cl (centres unmarked) [KHG23066, [2-(4-n-butylphenylimino)-3-methyl-1,3-thiazolidine-4-yl]-N-(4-chloro-2-fluorophenyl)-acetamide hydrochloride] | 223 to 224 | 1.3 | – |
| CN1C(=Nc2ccc(C#N)cc2)SCC1CC(=O)Nc1ccc(Cl)cc1F.Cl (centres unmarked) [KHG23067, [2-(4-cyanophenylimino)-3-methyl-1,3-thiazolidine-4-yl]-N-(4-chloro-2-fluorophenyl)-acetamide hydrochloride] | 136 to 137 | -2.73 | – |
| CN1C(=Nc2ccc(C(F)(F)F)cc2)SCC1CC(=O)Nc1ccc(Cl)cc1F.Cl (centres unmarked) [KHG23068, [2-(4-trifluoromethylphenylimino)-3-methyl-1,3-thiazolidine-4-yl]-N-(4-chloro-2-fluorophenyl)-acetamide hydrochloride] | 222 to 223 | 5.76 | – |
| Cc1ccc(N=C2SCC(CC(=O)Nc3ccc(Cl)cc3F)N2C)cc1.Cl (centres unmarked) [KHG23069, [2-(4-methylphenylimino)-3-methyl-1,3-thiazolidine-4-yl]-N-(4-chloro-2-fluorophenyl)-acetamide hydrochloride] | 243 to 245 | 4.33 | – |
| CN1C(=Nc2ccc(OC(F)(F)F)cc2)SCC1CC(=O)Nc1ccc(Cl)cc1F.Cl (centres unmarked) [KHG23070, [2-(4-trifluoromethoxyphenylimino)-3-methyl-1,3-thiazolidine-4-yl]-N-(4-chloro-2-fluorophenyl)-acetamide hydrochloride] | 236 to 237 | 7.44 | – |
| CC(C)c1ccc(N=C2SCC(CC(=O)Nc3ccc(Cl)cc3F)N2C)cc1.Cl (centres unmarked) [KHG23071, [2-(4-isopropylphenylimino)-3-methyl-1,3-thiazolidine-4-yl]-N-(4-chloro-2-fluorophenyl)-acetamide hydrochloride] | 237 to 238 | 15.5 | – |
| CCc1ccc(N=C2SCC(CC(=O)Nc3ccc(Cl)cc3F)N2C)cc1.Cl (centres unmarked) [KHG23072, [2-(4-ethylphenylimino)-3-methyl-1,3-thiazolidine-4-yl]-N-(4-chloro-2-fluorophenyl)-acetamide hydrochloride] | 242 | 29.4 | – |
| CN1C(=Nc2ccc(-c3ccccc3)cc2)SCC1CC(=O)Nc1ccc(Cl)cc1F.Cl (centres unmarked) [KHG23073, [2-(4-phenylphenylimino)-3-methyl-1,3-thiazolidine-4-yl]-N-(4-chloro-2-fluorophenyl)-acetamide hydrochloride] | 222 to 223 | 28.3 | – |
| COc1ccc(NC(=O)CC2CSC(=NC3CCCCC3)N2C)cc1Cl.Cl (centres unmarked) [KHG24070, (2-cyclohexylimino-3-methyl-1,3-thiazolidine-4-yl)-N-(3-chloro-4-methoxyphenyl)-acetamide hydrochloride] | 233.5 to 235 | – | 53 |
| Cc1cc(Cl)c(NC(=O)CC2CSC(=NC3CCCCC3)N2C)cc1Cl.Cl (centres unmarked) [KHG24071, (2-cyclohexylimino-3-methyl-1,3-thiazolidine-4-yl)-N-(2,5-dichloro-4-methylphenyl)-acetamide hydrochloride] | 146 | – | 52.1 |
